From publication PMC3108484 (Frontiers in Pharmacology, 2011)
Like-named read-outs stand apart in the source and are kept apart here. Each block holds one compound with its values, some of them ahead of it.

Tests used:
5-HT4 receptor = 5-HT4 receptor (Cavia porcellus, UniProt O70528); assay: Guinea pig colonic longitudinal muscle/myenteric plexus; details: for Guinea pig colonic LMMP contractile activity IA (mean % 5-HT max ± SEM): isolated tissue, % of primed 5-HT (0.3 μM) maximum
rat esophagus = assay: Rat esophageal relaxation; format: in vivo; details: cumulative i.d. dosing, anesthetized rats
hERG potassium channel = hERG potassium channel (Homo sapiens, UniProt Q12809); assay: in vitro
human 5-HT4(c) receptor = human 5-HT4(c) receptor (Homo sapiens, UniProt Q13639); format: cell-based; details: for pKb of GR113808 (Schild regression): GR113808 0.6, 1.7, or 5 nM, 95% CI
[1] = biological target: human 5-HT4(c) (h5-HT4(c)) receptor (Homo sapiens, UniProt Q13639); assay: biochemical
[2] = tested on: canine antrum, duodenum, and jejunum; assay: Dog gastrointestinal contractility; format: in vivo; details: oral, conscious fasted dogs; TD-8954 0.01 and 0.03 mg/kg, tegaserod 0.1 and 0.3 mg/kg

5-HT4 receptor, sequence (O70528 whole entry): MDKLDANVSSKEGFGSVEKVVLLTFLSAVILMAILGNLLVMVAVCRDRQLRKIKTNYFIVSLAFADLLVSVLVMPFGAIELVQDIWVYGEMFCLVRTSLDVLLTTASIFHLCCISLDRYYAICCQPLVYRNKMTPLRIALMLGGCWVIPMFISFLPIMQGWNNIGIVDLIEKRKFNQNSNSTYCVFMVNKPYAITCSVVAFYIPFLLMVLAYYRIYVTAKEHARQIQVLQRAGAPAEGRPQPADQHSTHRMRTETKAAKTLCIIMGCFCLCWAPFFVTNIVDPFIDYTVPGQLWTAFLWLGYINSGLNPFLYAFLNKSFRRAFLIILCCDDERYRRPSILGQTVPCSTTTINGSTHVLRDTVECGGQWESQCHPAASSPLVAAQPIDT
human 5-HT4(c) receptor, sequence (Q13639 1-380 isoform Q13639-4): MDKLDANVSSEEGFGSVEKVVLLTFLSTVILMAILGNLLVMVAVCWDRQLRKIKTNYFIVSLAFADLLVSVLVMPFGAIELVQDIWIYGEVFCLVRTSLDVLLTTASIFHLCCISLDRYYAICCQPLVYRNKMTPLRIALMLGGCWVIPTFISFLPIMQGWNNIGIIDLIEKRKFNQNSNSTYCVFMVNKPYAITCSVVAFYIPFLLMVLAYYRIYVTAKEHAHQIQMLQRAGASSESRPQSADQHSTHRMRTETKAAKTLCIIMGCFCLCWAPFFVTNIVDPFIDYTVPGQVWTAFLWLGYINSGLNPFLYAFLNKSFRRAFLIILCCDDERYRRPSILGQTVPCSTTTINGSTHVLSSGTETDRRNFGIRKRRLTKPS
human 5-HT4(c) (h5-HT4(c)) receptor, sequence (Q13639 1-380 isoform Q13639-4): as above
hERG potassium channel, sequence (Q12809 whole entry): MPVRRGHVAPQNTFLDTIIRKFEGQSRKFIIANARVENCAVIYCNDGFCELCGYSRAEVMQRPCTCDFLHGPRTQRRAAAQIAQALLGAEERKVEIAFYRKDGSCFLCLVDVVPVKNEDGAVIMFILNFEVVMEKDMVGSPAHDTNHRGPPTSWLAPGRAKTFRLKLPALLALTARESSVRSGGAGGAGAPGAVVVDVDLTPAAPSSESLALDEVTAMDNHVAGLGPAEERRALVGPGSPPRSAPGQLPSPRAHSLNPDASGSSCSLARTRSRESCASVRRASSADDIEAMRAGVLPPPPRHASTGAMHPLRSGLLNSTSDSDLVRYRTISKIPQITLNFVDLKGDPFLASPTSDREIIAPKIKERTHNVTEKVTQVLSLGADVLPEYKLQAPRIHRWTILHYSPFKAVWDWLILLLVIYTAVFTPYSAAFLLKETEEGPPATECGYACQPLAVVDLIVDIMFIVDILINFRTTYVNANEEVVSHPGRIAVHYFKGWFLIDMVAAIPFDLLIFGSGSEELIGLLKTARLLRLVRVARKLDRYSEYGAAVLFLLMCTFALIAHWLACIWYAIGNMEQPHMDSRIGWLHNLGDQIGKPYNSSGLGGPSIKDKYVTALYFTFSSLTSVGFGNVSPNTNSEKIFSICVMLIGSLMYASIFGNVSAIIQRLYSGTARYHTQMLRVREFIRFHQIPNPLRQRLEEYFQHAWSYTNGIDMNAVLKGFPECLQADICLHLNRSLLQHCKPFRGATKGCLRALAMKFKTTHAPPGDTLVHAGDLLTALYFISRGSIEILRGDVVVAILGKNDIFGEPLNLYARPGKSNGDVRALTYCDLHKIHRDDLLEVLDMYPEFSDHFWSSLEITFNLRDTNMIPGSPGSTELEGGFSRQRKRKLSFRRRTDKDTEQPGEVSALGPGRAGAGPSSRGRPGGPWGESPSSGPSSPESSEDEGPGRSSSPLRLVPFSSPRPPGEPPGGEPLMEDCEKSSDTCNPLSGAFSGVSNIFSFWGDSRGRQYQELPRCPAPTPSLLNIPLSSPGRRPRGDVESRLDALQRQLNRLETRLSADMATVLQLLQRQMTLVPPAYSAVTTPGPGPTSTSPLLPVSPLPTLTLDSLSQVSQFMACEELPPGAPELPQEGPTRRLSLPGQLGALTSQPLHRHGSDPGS

Structure (SMILES): COc1cc(N)c(Cl)cc1C(=O)NC1CCN(CCCOc2ccc(F)cc2)CC1OC (stereo not shown) [Cisapride, cisapride]
Guinea pig colonic LMMP contractile activity IA (mean % 5-HT max ± SEM) (5-HT4 receptor): 75 ± 3 % 5-HT max | Guinea pig colonic LMMP contractile activity IA (mean % 5-HT max ± SEM) (5-HT4 receptor; listed as cisapride): 75 % 5-HT max | dose associated with a relaxation response of 0.1 mm (rat esophagus): 2.66 mg/kg | inhibition at 0.02 µM (hERG potassium channel): 65%

Structure (SMILES): Cn1cc(C(=O)OCC2CCN(CCNS(C)(=O)=O)CC2)c2ccccc21 [GR113808]
pKb of GR113808 (Schild regression) (human 5-HT4(c) receptor; against 5-HT, cAMP accumulation): 10.3 (95% CI: 10.2–10.4) | pKb of GR113808 (Schild regression) (human 5-HT4(c) receptor; against TD-8954, cAMP accumulation): 10.3 (95% CI: 10.2–10.5)

Structure (SMILES): CCOc1cc(N)c(Cl)cc1C(=O)NCC1CN(Cc2ccc(F)cc2)CCO1 (stereo not shown) [Mosapride, mosapride]
EC50 (human 5-HT4(c) receptor): 501 nM | EC50 (5-HT4 receptor): 3980 nM | Guinea pig colonic LMMP contractile activity IA (mean % 5-HT max ± SEM) (5-HT4 receptor): 37 ± 2 % 5-HT max | Guinea pig colonic LMMP contractile activity IA (mean % 5-HT max ± SEM) (5-HT4 receptor; listed as mosapride): 37 % 5-HT max | dose associated with a relaxation response of 0.1 mm (rat esophagus): 4.37 mg/kg | Ki [1]: 158 nM

Structure (SMILES): COCCCN1CCC(NC(=O)c2cc(Cl)c(N)c3c2OCC3)CC1 [Prucalopride, prucalopride]
dose associated with a relaxation response of 0.1 mm (rat esophagus): 0.30 mg/kg

The next lines start with results.

Guinea pig colonic LMMP contractile activity IA (mean % 5-HT max ± SEM) (5-HT4 receptor): 45 ± 13 % 5-HT max | Guinea pig colonic LMMP contractile activity IA (mean % 5-HT max ± SEM) (5-HT4 receptor; listed as tegaserod): 45 % 5-HT max | Ki [1]: 2.51 nM
Structure (SMILES): [H]/N=C(/NCCCCC)N/N=C/c1c[nH]c2ccc(OC)cc12 [Tegaserod, tegaserod]
dose associated with a relaxation response of 0.1 mm (rat esophagus): 2.43 mg/kg | effect on contractility in the antrum, duodenum, and jejunum [2]: increases in contractility

shift of the TD-8954 concentration–response curve (5-HT4 receptor; piboserod 0.3 μM, guinea pig colonic LMMP): 614 fold
Structure (SMILES): CCCCN1CCC(CNC(=O)c2c3n(c4ccccc24)CCCO3)CC1 [piboserod]
